Legend:
PCSC cells = assay: Cell proliferation (MTT) of pancreatic cancer stem cells; format: cell-based, human; conditions: for IC50: Homo sapiens, read-out: IC50 (in culture), growth of PCSC; for IC50 / lowest concentration significantly inhibiting growth of PCSC cultures: 48 hr; for lowest concentration significantly inhibiting growth of PCSC cultures: p ≤ 0.02 vs vehicle
Procedure: Cell proliferation was assessed using an MTT [3-(4,5-dimethylthiazol-2-yl)-2,5-diphenyltetrazolium bromide] assay (Roche, Mannheim, Germany). The number of viable cells growing in a single well on a 96-well microtiter plate was estimated by adding 10 μl of MTT solution (5 mg/ml in phosphate-buffered saline [PBS]). After 4 h of incubation at 37°C, the stain was diluted with 100 μl of dimethyl sulfoxide. The optical densities were quantified at a test wavelength of 570 nm and a reference wavelength of 690 nm on a multiwell spectrophotometer. In some assays, MTS was used as substrate (Promega, Madison, WI), and the absorbance of the product was monitored at 490 nm. Cell enumeration was carried out using a hemocytometer, and viable cells identified by trypan blue exclusion.
Figure 2 Effects of PKCδ inhibitors on human cancer stem cells. (A) PCSC and PrCSC cells at 80% confluence were exposed to rottlerin. DMSO served as vehicle control (Vehicle). After 24 and 72 hr of exposure, cell mass was evaluated by MTT assay. Control values were normalized to 100%. p values for comparison between treatments reached significance at 24 hr of exposure (p≤0.01) for both cell types, and remained significant at 72 hr. (B) PCSC and PrCSC cells at 50% confluence were exposed to rottlerin. Cytotoxicity was evaluated by LDH-release assay. Total maximal LDH release was assigned the arbitrary value of 100% (Control). p values for comparison between effects of treatments on LDH release reached significance at 24 hr of exposure (p<0.01) for both cell types, and remained significant at 72 hr. (C) Effects of PKCδ inhibitor on tumor cell clonogenic capacity. PCSC were exposed to vehicle or rottlerin (10 μM) for 6, 18, 24, or 48 hr. Viable cells were enumerated and re-plated in media without inhibitor, and colony numbers were quantitated 15 days later. p values for comparison of treatment effects on clonogenic capacity reached significance (p=0.005) at 18 hr of exposure and remained significant for all subsequent exposure times. The insert is a photograph of stained colonies on plates. (D) Structures of staurosporine, rottlerin, second-generation (KAM1) and third-generation (BJE6-106) derivatives. (E) PCSC and PrCSC cells at 50% confluence were exposed to KAM1 at the indicated concentrations. DMSO served as vehicle control (Vehicle). Cytotoxicity was evaluated by LDH-release assay, as in panel B. p values for comparison between treatment effects on LDH release reached significance at 24 hr of exposure to 2.5 μM KAM1 for PCSC cells and at 10 μM for PrCSC (p≤0.01), and remained significant at 72 hr for all concentrations of KAM1. Error bars represent SEM.
Figure 3 Effects of a 3rd generation small molecule PKCδ inhibitor on human pancreatic cancer stem cell cultures. PCSC cells were grown to 80% confluence in 96-well plates and then exposed to BJE6-106 at concentrations ranging from 0.1 to 20 μM, or to rottlerin at concentrations ranging from 1 to 20 μM. The corresponding equivalent volume of solvent (DMSO) was used as a vehicle control (Vehicle). After 48 and 72 hr of exposure, cell mass was evaluated by MTT assay. Control values were normalized to 100%. Error bars represent SEM. p values for comparison between vehicle and rottlerin effects on cell number at 48 hr reached significance at 1 μM, and for BJE6-106 at 0.1 μM (p ≤ 0.02), and remained significant at the 72 hr time point.

[1] = tested on: breast cancer stem cells (BCSC); assay: Tumor spheroid formation, BCSC; format: cell-based, human; conditions: added to culture medium, 96 hr, p≤0.001
Procedure: (§1) Tumor self-renewing and anchorage-independent spheroids were obtained by culturing breast cancer cells MCF7, Hs587T and MDA231; melanoma cells SBcl2 and FM6; human breast cancer stem cells and pancreatic cancer stem cells in stem cell-selective conditions according to the manufacturer’s instructions (StemCell Technologies, Tukwila, WA). Briefly, cancer and cancer stem cells were propagated in 6-well ultra-low adherent plates (Corning) in Complete MammoCult Medium (Human) by adding 50 mL of MammoCult Proliferation Supplements to 450 mL of MammoCult Basal Medium (StemCell Technologies). The following were added to obtain Complete MammoCult Medium: 4 ug/mL Heparin (StemCell Technologies), 0.48 μg/mL hydrocortisone (StemCell Technologies), 200 U penicillin/ml; and 200 μg streptomycin/ml (Invitrogen).
(§2) Figure 4 Effects of PKCδ inhibitors on human tumor cell spheroid formation. […] Tumor spheroids and adherent cells were collected at 96 hr, stained for CD24 and CD44, and analyzed by flow cytometry. […] After 24, 48 and 72 hr of exposure, cell mass was evaluated by MTT assay. […] Viable cells were enumerated and re-plated in media without BJE6-206, and spheroid numbers were quantitated 96 hr later. p values for comparison between vehicle and BJE6-106 effects on spheroid number were significant after 6 hr of exposure (p≤0.02), and remained significant at all time points thereafter. […]

MCF7 spheroids = assay: Tumor spheroid formation, MCF7; format: cell-based; conditions: Homo sapiens, 96 hr, read-out: inhibition of growth of MCF7 spheroids
Procedure: as §1, §2

| SMILES | IC50 (PCSC cells; MTT) [µM] | lowest concentration significantly inhibiting growth of PCSC cultures (PCSC cells; MTT) [µM] | effect on formation of spheroids, BCSC [1] | inhibition at 1 µM (MCF7 spheroids; BJE6-106 at 1 μM) [%] | growth-inhibitory activity on PCSC at 0.5 μM (PCSC cells; 0.5 μM) | effect on proliferation of PCSC (PCSC cells; MTT, as early as 24 hr after exposure) | inhibition at 10 µM (MCF7 spheroids; rottlerin at 10 μM) [%] |
| --- | --- | --- | --- | --- | --- | --- | --- |
| CC1(C)C=Cc2cc(CCn3c4ccccc4c4ccccc43)cc(C=O)c2O1 [BJE6-106, 6-(2-(9H-carbazol-9-yl)ethyl)-2,2-dimethyl-2H-chromene-8-carbaldehyde] | ~0.5 | 0.1 | very efficiently inhibited | > 90 |  |  |  |
| CC(=O)c1c(O)c(C)c(O)c(Cc2c(O)c3c(c(C(=O)/C=C/c4ccccc4)c2O)OC(C)(C)C=C3)c1O [rottlerin, Rottlerin, reference compound] | ~3 | 1 | very efficiently inhibited |  | no significant inhibitory activity | significant dose-dependent inhibition of proliferation | > 90 |

Reference: article PMC3927586, “Protein kinase C-delta inactivation inhibits the proliferation and survival of cancer stem cells in culture and in vivo” (BMC Cancer, 2014)
